Series [1] deals with HT-1080 (human lung fibrosarcoma). Kind of series: Cytotoxicity, MTT assay, HT-1080. In kind it is cell-based. The conditions noted are these: 72 h exposure; for IC50: Homo sapiens, HT-1080, read-out: HT-1080 IC50 (MTT). The text has this: (§1) Reduction takes place only when mitochondrial reductase enzymes are active, and therefore, conversion is directly related to the number of viable cells which can be quantified by the absorbance of the solution (between λ = 500 and 600 nm) using a spectrophotometer.

Series [2] relates to MH-22A (mouse hepatoma). Kind of series: Cytotoxicity, crystal violet (CV) assay, MH-22A. The note with it: Mus musculus, 72 h exposure, read-out: MH-22A IC50 (CV). In kind it is cell-based. Here is the method: After incubation, the staining solution was removed. The cells were washed 4 times with water.
For series [3], the system named is MH-22A (mouse hepatoma). Kind of series: Cytotoxicity, MTT assay, MH-22A. In kind it is cell-based. The conditions noted are these: 72 h exposure; for IC50: Mus musculus, read-out: MH-22A IC50 (MTT).
From the text: as §1

The subject of a further series is NIH3T3. The series is described as follows: in vitro. The note with it: for LD50 (calculated, NIH3T3): mouse. The text has this: Data from the in vitro tests were used for estimating the starting dose for acute oral systemic toxicity tests in the rodent. The in vivo starting dose is an estimated LD50 value calculated by inserting the in vitroIC50 value into a regression formula: log LD50 (mM/kg) = 0.439 log IC50 (mM) + 0.621 [23–25]. […] Using an alternative in vitro method allows the comparison between possibly toxic new compounds and selecting compounds for further study vastly reducing the number of animal experiments.
Additionally, the compound influence on “normal” mouse fibroblasts (NIH3T3) was estimated for the studies of structure-activity relationships and exploration of the effect of substituents.

In series [4] the test system is HT-1080 (human lung fibrosarcoma). Kind of series: Cytotoxicity, crystal violet (CV) assay, HT-1080. The conditions noted are these: Homo sapiens, HT-1080, 72 h, read-out: HT-1080 IC50 (CV).
Description: IC50 is the compound concentration (μg/ml) at which 50% of the cells die. […] CV staining can be used to quantify the total DNA of the remaining population and thus is used to determine the number of live cells based on the concentration of the dye which remains after staining.
Tumor cell lines HT-1080 (human connective tissue fibrosarcoma, ATCC® CCL-121™) and MH-22A (mouse hepatocarcinoma, ECACC, cat. Nr. 96121721) were used.
HT-1080 and MH-22A cells were seeded in 96-well plates in Dulbecco's modified Eagle's (DMEM) medium containing 10% fetal bovine serum and 4 mM L-glutamine, without antibiotics, and cultivated for 72 h by exposure to different concentrations of compounds. Cell viability was measured using 3-(4,5-dimethylthiazol-2-yl)-2,5-diphenyltetrazolinium bromide (MTT). In brief, after incubating with compounds, the culture medium was removed and fresh medium with 0.2 mg/ml MTT was added in each well of the plate. After incubation (3 h, 37°C, 5% CO2), the medium with MTT was removed, and 200 μl DMSO was added at once to each sample. The samples were tested at 540 nm on a Tecan Infinite M1000 multiplate reader. The IC50 was calculated using the program GraphPad Prism® 3.0.
For the CV assay, cells were stained with 0.05% crystal violet (Sigma-Aldrich) in 30% methanol for 20 minutes at room temperature. After incubation, the staining solution was removed. The cells were washed 4 times with water. For dye solubilization, 200 μl of a solubilizing solution (0.1 M citrate buffer, pH 4.2 in 50% ethanol; 1 : 1 v/v) was added. The absorbance of the solution was measured using a Tecan Infinite M1000 multiplate spectrophotometer at a wavelength of 570 nm [21].
Series [5] relates to NIH3T3 (mouse embryonic fibroblast). Kind of series: Basal cytotoxicity test, Neutral Red Uptake (NRU) assay. The note with it: for IC50: Mus musculus, NIH3T3, 24 h.
Description: The NRU cytotoxicity assay procedure is based on the ability of viable cells to incorporate and bind neutral red, a supravital dye.
Balb/c NIH 3T3 (mouse Swiss albino embryo fibroblast, ATCC® CRL-1658™) cells (9000 cells/well) were placed into 96-well plates for 24 h in Dulbecco's modified Eagle's medium (DMEM) containing 5% fetal bovine serum. Then, the cells were exposed to the test compound over a range of seven concentrations (1000, 316, 100, 31, 10, 3, and 1 μg/ml) for 24 h. Untreated cells were used as a control. After 24 h, the medium was removed from all plates. Then, 150 μl of neutral red solution was added (0.05 mg/ml NR in DMEM 24 h preincubated at 37°C and then filtered before use through a 0.22 μm syringe filter). Plates were incubated for 3 h, and then, the cells were washed three times with PBS. The dye within viable cells was released by extraction with a mixture of acetic acid, ethanol, and water (1 : 50 : 49). The absorbance of neutral red was measured using a spectrophotometer multiplate reader (Tecan Infinite M1000) at 540 nm. The optical density (OD) was calculated using the following formula: OD (treated cells) × 100/OD (control cells). The IC50 values were calculated using the GraphPad Prism® 3.0 program.
[6] abbreviates: read-out: NIH3T3 IC50 (NR), Table 2, 24 h exposure.

Where two headings read alike, the source gives them in different places.

Consider 16 molecules from article PMC7790557, “Pleiotropic Properties of Amphiphilic Dihydropyridines, Dihydropyridones, and Aminovinylcarbonyl Compounds” (Oxidative Medicine and Cellular Longevity, 2020).

As for `CCOC(=O)C1=C(C[n+]2ccc(C)cc2)NC(C[n+]2ccc(C)cc2)=C(C(=O)OCC)C1c1ccccc1.[Br-].[Br-]` [compound 2, 1,1'-((3,5-Bis(ethoxycarbonyl)-4-phenyl-1,4-dihydropyridine-2,6-diyl)bis(methylene))-bis(4-methylpyridin-1-ium) dibromide], the IC50 was > 740 µg/mL in series [1] (Table 1); > 100 µg/mL with MH-22A (mouse hepatoma) [2] (Table 1); > 100 µg/mL in the series with MH-22A (mouse hepatoma) [3] (Table 1); > 100 µg/mL in series [4]; > 1000 µg/mL in series [5] (read-out: NIH3T3 IC50 (NR)). Besides, in the series on NIH3T3, the “LD50 (calculated, NIH3T3)” value was > 2000 mg/kg.

For the molecule `CCOC(=O)C1=C(C[n+]2ccc(N)cc2)NC(C[n+]2ccc(N)cc2)=C(C(=O)OCC)C1c1ccccc1.[Br-].[Br-]` [compound 3, 1,1'-((3,5-Bis(ethoxycarbonyl)-4-phenyl-1,4-dihydropyridine-2,6-diyl)bis(methylene))-bis(4-aminopyridin-1-ium) dibromide], the IC50 in series [1] (Table 1) is 441 ± 46 µg/mL; with MH-22A (mouse hepatoma) [3] (Table 1) it was > 740 µg/mL; in series [5] (read-out: NIH3T3 IC50 (NR)), > 1000 µg/mL. Moreover, the “LD50 (calculated, NIH3T3)” value in the series on NIH3T3 is listed as > 2000 mg/kg.

For the molecule `CCCCCCCCCCCC[N+](C)(C)CC1=C(C(=O)OC)C(c2ccccc2)CC(=O)N1` (centres unmarked) [compound 33, N-((3-(methyloxycarbonyl)-6-oxo-4-phenyl-1,4,5,6-tetrahydropyridin-2-yl)methyl-N,N-dimethyldodecan-1-aminium bromide], the IC50 in series [1] (Table 2) is 1 ± 0.2 µg/mL; in the series on MH-22A (mouse hepatoma) [2] (Table 2) it was 2 ± 0.1 µg/mL; in the series on MH-22A (mouse hepatoma) [3] (Table 2), 2 ± 0.6 µg/mL; in series [4], 2 ± 0.4 µg/mL; in series [5] (setting [6]), 4 ± 1 µg/mL.

Regarding `O=C1CC(c2ccccc2)C(C(=O)OCCCCC(F)(F)C(F)(F)C(F)(F)C(F)(F)C(F)(F)C(F)(F)C(F)(F)C(F)(F)F)=C(C[n+]2ccccc2)N1.[Br-]` (centres unmarked) [compound 31, 1-((3-(((5,5,6,6,7,7,8,8,9,9,10,10,11,11,12,12,12-Heptadecafluorododecyl)oxy)carbonyl)-6-oxo-4-phenyl-1,4,5,6-tetrahydropyridin-2-yl)methyl)pyridin-1-ium bromide], the IC50 in series [1] (Table 2) came out at 3 ± 0.2 µg/mL; in the series with MH-22A (mouse hepatoma) [2] (Table 2), 3 ± 1 µg/mL; in the series with MH-22A (mouse hepatoma) [3] (Table 2), 3 ± 0.6 µg/mL; in series [4] it was 3 ± 0.3 µg/mL; in series [5] (setting [6]), 15 ± 2 µg/mL.

With `O=C1CC(c2ccccc2)C(C(=O)OCCCCC(F)(F)C(F)(F)C(F)(F)C(F)(F)C(F)(F)C(F)(F)C(F)(F)C(F)(F)F)=C(C[n+]2ccccc2)N1.[O-][Cl+3]([O-])([O-])[O-]` (centres unmarked) [compound 32, 1-((3-(((5,5,6,6,7,7,8,8,9,9,10,10,11,11,12,12,12-Heptadecafluorododecyl)oxy)carbonyl)-6-oxo-4-phenyl-1,4,5,6-tetrahydropyridin-2-yl)methyl)pyridin-1-ium perchlorate], the IC50 in series [1] (Table 2) was found to be 3 ± 0.5 µg/mL; in the series with MH-22A (mouse hepatoma) [2] (Table 2), 2 ± 0.3 µg/mL; with MH-22A (mouse hepatoma) [3] (Table 2), 3 ± 0.2 µg/mL; in series [4], 3 ± 0.3 µg/mL; in series [5] (setting [6]), 15 ± 3 µg/mL.

`CCCCCCCCCCCCOC(=O)C1=C(C[N+](C)(C)CCCCCCCCCCCC)NC(=O)CC1c1ccccc1` (centres unmarked) [compound 34, N-((3-(dodecyloxycarbonyl)-6-oxo-4-phenyl-1,4,5,6-tetrahydropyridin-2-yl)methyl-N,N-dimethyldodecan-1-aminium bromide]: the IC50 is 2 ± 0.6 µg/mL in series [1] (Table 2); 3 ± 0.8 µg/mL with MH-22A (mouse hepatoma) [2] (Table 2); < 1 µg/mL in the series on MH-22A (mouse hepatoma) [3] (Table 2); 2 ± 0.2 µg/mL in series [4]; 6 ± 2 µg/mL in series [5] (setting [6]).

With `CCCCCCCCCCCCOC(=O)C1=C(C[n+]2ccccc2)NC(C[n+]2ccccc2)=C(C(=O)OCCCCCCCCCCCC)C1c1ccc(O)cc1.[Br-].[Br-]` [compound 18, 1,1'-((3,5-Bis((dodecyloxy)carbonyl)-4-(4-hydroxyphenyl)-1,4-dihydropyridine-2,6-diyl)bis(methylene))bis(pyridin-1-ium) dibromide], the IC50 is 10 ± 2 µg/mL in series [1] (Table 1); 3.4 ± 0.6 µg/mL in the series on MH-22A (mouse hepatoma) [2] (Table 1); 16 ± 2 µg/mL in the series on MH-22A (mouse hepatoma) [3] (Table 1); 4.3 ± 0.6 µg/mL in series [4]; 95 ± 7 µg/mL in series [5] (read-out: NIH3T3 IC50 (NR)).

`CCCCCCCCCCCCOC(=O)C1=C(C[n+]2ccc(C)cc2)NC(C[n+]2ccc(C)cc2)=C(C(=O)OCCCCCCCCCCCC)C1c1ccc(O)cc1.[Br-].[Br-]` [compound 19, 1,1'-((3,5-Bis((dodecyloxy)carbonyl)-4-(4-hydroxyphenyl)-1,4-dihydropyridine-2,6-diyl)bis(methylene))bis(4-methylpyridin-1-ium) dibromide]: the half-inhibitory concentration (IC50) is 22 ± 5 µg/mL in series [1] (Table 1); 21 ± 3 µg/mL with MH-22A (mouse hepatoma) [2] (Table 1); 30 ± 8 µg/mL in the series with MH-22A (mouse hepatoma) [3] (Table 1); 32 ± 8 µg/mL in series [4]; 44 ± 11 µg/mL in series [5] (read-out: NIH3T3 IC50 (NR)).

For `CCCCCCCCCCCCOC(=O)C1=C(C[N+](C)(C)CCCCCCCCCCCC)NC(C[N+](C)(C)CCCCCCCCCCCC)=C(C(=O)OCCCCCCCCCCCC)C1c1ccccc1.[O-][Cl+3]([O-])([O-])[O-].[O-][Cl+3]([O-])([O-])[O-]` [compound 20, N,N'-((3,5-bis((dodecyloxy)carbonyl)-4-phenyl-1,4-dihydropyridine-2,6-diyl)bis(methylene))bis(N,N-dimethyldodecan-1-aminium) diperchlorate], the half-maximal inhibitory concentration (IC50) in series [1] (Table 1) was 3 ± 0.4 µg/mL; in the series with MH-22A (mouse hepatoma) [2] (Table 1) it was 10 ± 2 µg/mL; in the series on MH-22A (mouse hepatoma) [3] (Table 1), 10 ± 2 µg/mL; in series [4], 3 ± 0.3 µg/mL; in series [5] (read-out: NIH3T3 IC50 (NR), Table 1, 24 h exposure), 19 ± 6 µg/mL.

For `CCCCCCCCCCCC[N+](C)(C)CC1=C(C(=O)OC)CCC(=O)N1` [compound 36, N-((3-(methyloxycarbonyl)-6-oxo-1,4,5,6-tetrahydropyridin-2-yl)methyl-N,N-dimethyldodecan-1-aminium bromide], the IC50 in series [1] (Table 2) stood at 1 ± 0.2 µg/mL; in the series on MH-22A (mouse hepatoma) [2] (Table 2), 18 ± 3 µg/mL; in the series on MH-22A (mouse hepatoma) [3] (Table 2) it was 16 ± 3 µg/mL; in series [4], 2 ± 0.2 µg/mL; in series [5] (setting [6]) it was 63 ± 11 µg/mL.

`CCOC(=O)C1=C(C[n+]2ccc(N(C)C)cc2)NC(C[n+]2ccc(N(C)C)cc2)=C(C(=O)OCC)C1c1ccccc1.[Br-].[Br-]` [compound 4, 1,1'-((3,5-Bis(ethoxycarbonyl)-4-phenyl-1,4-dihydropyridine-2,6-diyl)bis(methylene))-bis(4-(dimethylamino)pyridin-1-ium) dibromide]: the IC50 in series [1] (Table 1) was 324 ± 29 µg/mL; in the series with MH-22A (mouse hepatoma) [3] (Table 1), 608 ± 49 µg/mL; in series [5] (read-out: NIH3T3 IC50 (NR)) it was > 1000 µg/mL. In addition, in the series with NIH3T3, the “LD50 (calculated, NIH3T3)” value is > 2000 mg/kg.

Regarding `CCOC(=O)C1=C(C[n+]2cccc(C)c2)NC(C[n+]2cccc(C)c2)=C(C(=O)OCC)C1c1ccccc1.[Br-].[Br-]` [compound 5, 1,1'-((3,5-Bis(ethoxycarbonyl)-4-phenyl-1,4-dihydropyridine-2,6-diyl)bis(methylene))-bis(3-methylpyridin-1-ium) dibromide], the values for the IC50 (in series [1] (Table 1); in the series on MH-22A (mouse hepatoma) [3] (Table 1); in series [5] (read-out: NIH3T3 IC50 (NR))) were > 740 µg/mL, > 100 µg/mL and > 1000 µg/mL, respectively. The “LD50 (calculated, NIH3T3)” value with NIH3T3 was > 2000 mg/kg.

For the molecule “1,1'-((4-(2-(Difluoromethoxy)phenyl)-3,5-bis(methoxycarbonyl)-1,4-dihydropyridine-2,6-diyl)bis(methylene))bis(1-methylpiperidin-1-ium) diperchlorate [compound 9]”, the “HT-1080 IC50 (MTT)” value in series [1] (Table 1) is “∗ (∗: not detected)”. Moreover, the “MH-22A IC50 (MTT)” value with MH-22A (mouse hepatoma) [3] (Table 1) is listed as “∗ (∗: not detected)”. For the same molecule, the “NIH3T3 IC50 (NR)” value in series [5] (Table 1, 24 h exposure) is given as “∗ (∗: not detected)”.

With `CCCCCCCCCCCC[N+](C)(C)CC1=C(C(=O)OCCCCC(F)(F)C(F)(F)C(F)(F)C(F)(F)C(F)(F)C(F)(F)C(F)(F)C(F)(F)F)C(c2ccccc2)CC(=O)N1` (centres unmarked) [compound 35, N-((3-((5,5,6,6,7,7,8,8,9,9,10,10,11,11,12,12,12-Heptadecafluorododecyloxy)carbonyl)-6-oxo-4-phenyl-1,4,5,6-tetrahydropyridin-2-yl)methyl-N,N-dimethyldodecan-1-aminium bromide], the concentration for half-maximal inhibition (IC50) in series [1] (Table 2) was determined as 30 ± 11 µg/mL; with MH-22A (mouse hepatoma) [2] (Table 2), 26 ± 6 µg/mL; in the series on MH-22A (mouse hepatoma) [3] (Table 2), 30 ± 8 µg/mL; in series [4], 3 ± 0.3 µg/mL; in series [5] (setting [6]) it was 27 ± 9 µg/mL.

Regarding `CCCCCCCCCCCCOC(=O)C1=C(C[N+](C)(C)CCCCCCCCCCCC)NC(=O)CC1` [compound 37, N-((3-(dodecyloxycarbonyl)-6-oxo-1,4,5,6-tetrahydropyridin-2-yl)methyl-N,N-dimethyldodecan-1-aminium bromide], the IC50 in series [1] (Table 2) stood at 3 ± 0.4 µg/mL; with MH-22A (mouse hepatoma) [2] (Table 2), 3 ± 0.6 µg/mL; with MH-22A (mouse hepatoma) [3] (Table 2) it was 1 ± 0.2 µg/mL; in series [4], 2 ± 0.5 µg/mL; in series [5] (setting [6]), 7 ± 1 µg/mL.

`CCCCCCCCCCCCCCCCOC(=O)/C=C(\N)C[N+](C)(C)CCCCCCCCCCCC` [compound 46, (Z,E)-N-(2-Amino-4-(hexadecyloxy)-4-oxobut-2-en-1-yl)-N,N-dimethyldodecan-1-aminium iodide]: in the series on NIH3T3 (Table 3, calculated from NIH3T3 IC50 by regression formula), the “NIH3T3 LD50” value is on record as 637 mg/kg. Also, the “IC50 in NIH3T3 cell lines” value in series [5] is on record as “around 30 μg/ml”. Moreover, in series [5] (Table 3, 24 h exposure), the “NIH3T3 IC50 (NR)” value was 34 ± 8 µg/mL.
